In US7151105B2, “Inhibitors of Hepatitis C virus RNA-dependent RNA polymerase, and compositions and treatments using the same” (Agouron Pharmaceuticals, Inc., priority 2004, dated 2006):

Biological target: T1, Recombinant HCV polymerase (Hepatitis C virus genotype 1b, UniProt P26663)
T1 construct: Recombinant HCV polymerase was tested for its ability to perform primer/template-directed transcription
Experiment: biochemical
Conditions: inhibition of polymerase-directed transcription; 30 min at 30° C; 30 nM enzyme; cpm data in triplicate
Method in brief: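 Primer/template-directed RNA synthesis by 2.5 pmol HCV polymerase on poly(rC)300/biotin-dG12 with 1 μM GTP plus α-32P-GTP, in pH 7.2 Tris buffer with 10 mM MgCl2, for 30 min at 30 °C. Products were filter-captured and counted, with 1% DMSO final. IC50 was fitted from triplicate cpm; percent inhibition was reported where IC50 was impractical.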

T1 sequence (P26663 2420-3010): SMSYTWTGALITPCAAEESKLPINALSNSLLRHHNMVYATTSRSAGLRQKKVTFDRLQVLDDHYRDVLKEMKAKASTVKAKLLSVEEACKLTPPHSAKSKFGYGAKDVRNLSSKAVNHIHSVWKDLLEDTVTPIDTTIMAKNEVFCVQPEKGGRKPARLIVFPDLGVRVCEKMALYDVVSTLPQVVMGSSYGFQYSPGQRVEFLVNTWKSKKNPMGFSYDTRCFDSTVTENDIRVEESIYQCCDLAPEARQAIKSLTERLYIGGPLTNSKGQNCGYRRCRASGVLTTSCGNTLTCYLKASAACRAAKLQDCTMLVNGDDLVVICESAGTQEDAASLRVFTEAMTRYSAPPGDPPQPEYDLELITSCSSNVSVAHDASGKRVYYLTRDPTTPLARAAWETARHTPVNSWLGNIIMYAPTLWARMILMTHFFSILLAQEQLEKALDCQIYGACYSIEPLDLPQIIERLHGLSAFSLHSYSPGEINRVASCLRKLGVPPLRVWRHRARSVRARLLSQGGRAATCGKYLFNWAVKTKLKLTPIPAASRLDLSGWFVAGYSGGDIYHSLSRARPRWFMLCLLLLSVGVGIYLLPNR

In the case of `Cc1cc(C)n2nc(CC3=C(O)CC(CCc4ccc(C(C)(C)O)c(Cl)c4)(C4CCCC4)OC3=O)nc2n1` (centres unmarked) [B(37), 6-{2-[3-Chloro-4-(1-hydroxy-1-methylethyl)phenyl]ethyl}-6-cyclopentyl-3[(5,7-dimethyl[1,2,4]triazolo[1,5-a]pyrimidin-2-yl)methyl]-4-hydroxy-5,6-dihydro-2H-pyran-2-one], the IC50 is reported as 22 nM.
Compound `CCc1cc(CC[C@]2(C3CCCC3)CC(O)=C(Cc3nc4ncc(C)cn4n3)C(=O)O2)c(O)cc1O` [A(21), (6R)-6-cyclopentyl-6-[2-(5-ethyl-2,4dihydroxyphenyl)ethyl]-4-hydroxy-3-[(6-methyl[1,2,4]triazolo[1,5-a]pyrimidin-2-yl)methyl]-5,6-dihydro-2H-pyran-2-one] has an IC50 of 1 nM.
With `COc1cc(O)c(C(C)=O)cc1CCC1(C2CCCC2)CC(O)=C(Cc2nc3nc(C)cc(C)n3n2)C(=O)O1` (centres unmarked) [A(98), 6-[2-(5-Acetyl-4-hydroxy-2-methoxyphenyl)ethyl]-cyclopentyl-3-[(5,7-dimethyl[1,2,4]triazolo[1,5-a]pyrimidin-2-yl)methyl]-4-hydroxy-5,6-dihydro-2H-pyran-2-one] the IC50 was 11 nM.
In the case of `CCCOc1cc(O)c(CCC2(C3CCCC3)CC(O)=C(Cc3nc4ncc(C)cn4n3)C(=O)O2)cc1CC` (centres unmarked) [A(50), 6-Cyclopentyl-6-[2-(5-ethyl-2-hydroxy-4-propoxyphenyl)ethyl]-4-hydroxy-3-[(6-methyl[1,2,4]triazolo[1,5-a]pyrimidin-2-yl)methyl]-5,6-dihydro-2H-pyran-2-one], the IC50 is reported as 4 nM.
For `CCCS(=O)(=O)Nc1ccc(CCC2(C3CCCC3)CC(O)=C(Cc3nc4nc(C)cc(C)n4n3)C(=O)O2)cc1CC` (centres unmarked) [A(109), N-[4-(2-{2-cyclopentyl-5-[(5,7-dimethyl[1,2,4]triazolo[1,5-a]pyrimidin-2-yl)methyl]-4-hydroxy-6-oxo-3,6-dihydro-2H-pyran-2-yl}ethyl)-2-ethylphenyl]propane-1-sulfonamide], the IC50 was 6 nM.
